These results are taken from ChEMBL document CHEMBL1212821 (J Med Chem, 2010).

pEC50, pIC50: −log10 of the molar value. Where only a bound is given, the exact number is not on record here.

The nature of assay [1]: Drug resistant ratio of EC50 for human KBV1 cells overexpressing MDR1 to EC50 for KB3-1 cells. In kind it is functional, cell-based.
A short description of assay [2]: Antiproliferative activity against human KBV1 cells overexpressing MDR1 after 72 hrs by Alamar blue assay in presence of zosuquidar. The following applies: KB-V1, 72 h. In general terms: Resazurin is reduced to fluorescent resorufin, in cell work by metabolically active cells.
The nature of assay [3]: Antiproliferative activity against human KB3-1 cells after 72 hrs by Alamar blue assay in presence of zosuquidar. As to conditions: KB 3-1, 72 h.
A short description of assay [4]: Antiproliferative activity against human KB3-1 cells after 72 hrs by Alamar blue assay. The following applies: KB 3-1, 72 h.
Assay [5] can be described thus: Antiproliferative activity against human KBV1 cells overexpressing MDR1 after 72 hrs by Alamar blue assay. The following applies: KB-V1, 72 h.
The test system of assay [6] is K562. Put plainly: Antiproliferative activity against human K562 cells after 72 hrs by Alamar blue assay.
Assay [7] deals with NCI-H1299. The experiment in a line: Antiproliferative activity against human NCI-H1299 cells after 72 hrs by Alamar blue assay.
Assay [8] is described as follows: Antiproliferative activity against human hTERT-HME1 cells after 72 hrs by Alamar blue assay.
Assay [9] deals with BXPC-3. Put plainly: Antiproliferative activity against human BxPC3 cells after 72 hrs by Alamar blue assay.
For assay [10], the system named is HCT-116. Put plainly: Antiproliferative activity against human HCT116 cells after 72 hrs by Alamar blue assay.
Assay [11] deals with T1, Kinesin-like protein KIF11 (Homo sapiens, UniProt P52732).
T1 sequence (P52732 whole entry): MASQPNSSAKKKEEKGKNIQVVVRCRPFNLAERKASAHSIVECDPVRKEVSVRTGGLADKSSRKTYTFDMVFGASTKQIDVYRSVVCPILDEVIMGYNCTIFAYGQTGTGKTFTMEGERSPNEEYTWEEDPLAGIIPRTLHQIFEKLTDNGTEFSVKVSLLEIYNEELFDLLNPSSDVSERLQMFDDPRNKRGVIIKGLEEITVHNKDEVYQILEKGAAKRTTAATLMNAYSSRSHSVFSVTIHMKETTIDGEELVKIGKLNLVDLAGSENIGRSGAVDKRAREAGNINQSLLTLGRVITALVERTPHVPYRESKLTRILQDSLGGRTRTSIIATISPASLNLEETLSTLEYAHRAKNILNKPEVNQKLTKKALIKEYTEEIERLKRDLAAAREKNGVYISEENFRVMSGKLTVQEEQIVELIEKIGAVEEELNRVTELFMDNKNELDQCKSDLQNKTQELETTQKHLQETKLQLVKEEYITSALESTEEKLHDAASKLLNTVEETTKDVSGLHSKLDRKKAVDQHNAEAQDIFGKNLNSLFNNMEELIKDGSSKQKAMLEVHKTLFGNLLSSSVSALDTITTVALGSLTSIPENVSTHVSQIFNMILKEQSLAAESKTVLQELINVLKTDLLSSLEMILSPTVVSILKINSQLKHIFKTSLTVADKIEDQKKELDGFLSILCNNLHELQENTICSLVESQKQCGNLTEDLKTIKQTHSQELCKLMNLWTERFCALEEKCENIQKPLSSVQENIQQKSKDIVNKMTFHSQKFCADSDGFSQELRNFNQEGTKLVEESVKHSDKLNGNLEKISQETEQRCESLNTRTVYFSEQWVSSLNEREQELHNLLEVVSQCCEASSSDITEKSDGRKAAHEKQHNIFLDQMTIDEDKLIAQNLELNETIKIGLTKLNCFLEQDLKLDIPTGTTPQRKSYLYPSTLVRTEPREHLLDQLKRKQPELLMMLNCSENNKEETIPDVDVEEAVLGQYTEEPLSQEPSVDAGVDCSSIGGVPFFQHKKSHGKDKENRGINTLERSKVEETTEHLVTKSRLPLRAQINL
The experiment in a line: Inhibition of human kinesin Eg5.

Turning to `CC[C@]1(O)C[C@@H]2CN(CCc3c([nH]c4ccccc34)[C@@](C(=O)OC)(c3cc4c(cc3OC)N(C)[C@H]3[C@@](O)(C(=O)OC)[C@H](OC(C)=O)[C@]5(CC)C=CCN6CC[C@]43[C@@H]65)C2)C1` [VINBLASTINE], the ratio in [1] worked out at 162. For the same compound, the pEC50 (usually the EC50 on a negative log10 scale, so that one unit is a factor of ten) was 7.89 in [2], 8.07 in [3], 7.90 in assay [4] and 5.69 in assay [5].
On to `CC1=C(C(=O)c2ccccc2)C(c2cccc(O)c2)NC(=S)N1C` (stereo in doubt; form 2), for which the pEC50 is 4.94 in assay [6] (k562); 4.74 in assay [7] (nci-h1299); less than 4.30 in assay [8] (hme1); 4.84 in assay [9] (bxpc-3); 5.19 in assay [10] (hct-116).
Turning to `CC1=C(C(=O)c2cccc(F)c2)C(c2cccc(O)c2)NC(=S)N1C` (stereo unspecified), the pEC50 in assay [6] (Homo sapiens, K562, 72 h) is 5.56; in [7] (Homo sapiens, NCI-H1299, 72 h), 5.56; in assay [8] (Homo sapiens, HME1, 72 h) it was 5.55; in assay [9] (Homo sapiens, BXPC-3, 72 h) it was 5.55; in assay [10] (Homo sapiens, HCT-116, 72 h) it was 5.89.
As to `CC1=C(C(=O)c2ccc(F)c(F)c2)C(c2cccc(O)c2)NC(=S)N1C` (stereo in doubt; form 1), the pEC50 in [6] (k562) was 4.58; in [7] (nci-h1299), 4.48; in [8] (hme1), less than 7.00; in assay [9] (bxpc-3) it was 4.47; in [10] (hct-116), 4.82.
With `O=C1CCCC2=C1C(c1cccc(O)c1)NC(=S)N2` (racemic), the pEC50 in assay [6] (Homo sapiens, K562, 72 h) is 5.32; in [7] (Homo sapiens, NCI-H1299, 72 h) it was 5.31; in [8] (Homo sapiens, HME1, 72 h) it was 5.61; in assay [9] (Homo sapiens, BXPC-3, 72 h), 5.68; in assay [10] (Homo sapiens, HCT-116, 72 h), 5.74.
On to `CCOC(=O)C1=C(C)NC(=S)N[C@@H]1c1cccc(O)c1`, for which the pIC50 (as a rule, the negative decadic logarithm of the IC50, by convention in mol/L) in [11] is 4.52.
On to `CC1=C(C(=O)c2ccc(F)cc2)C(c2cccc(O)c2)NC(=S)N1C` (stereo unspecified), for which the pEC50 in [6] (Homo sapiens, K562, 72 h) is 5.58; in [7] (Homo sapiens, NCI-H1299, 72 h), 5.62; in [8] (Homo sapiens, HME1, 72 h), 5.59; in assay [9] (Homo sapiens, BXPC-3, 72 h), 5.67; in assay [10] (Homo sapiens, HCT-116, 72 h), 6.02.
For `CCOC(=O)C1=C(C)NC(=S)NC1c1cccc(O)c1` (racemic) [MONASTROL], the ratio in assay [1] was 1.2. The negative-log EC50 (pEC50) in [6] (Homo sapiens, K562, 72 h) was less than 7.00; in [2], 4.34; in assay [7] (Homo sapiens, NCI-H1299, 72 h) it was less than 7.00; in [3], 4.25; in [4], 4.07; in [8] (Homo sapiens, HME1, 72 h) it was 4.35. For the same compound, the pEC50 in assay [9] (Homo sapiens, BXPC-3, 72 h) is less than 7.00; in [10] (Homo sapiens, HCT-116, 72 h) it was 4.62; in [5], 4.00.
Consider `CC1=C(C(=O)c2ccc(F)c(F)c2)C(c2cccc(O)c2)NC(=S)N1C` (stereo in doubt; form 2), for which the pEC50 is 6.09 in assay [6] (k562); 6.11 in [7] (nci-h1299); 6.65 in assay [8] (hme1); 6.13 in [9] (bxpc-3); 6.49 in assay [10] (hct-116).
The corresponding values for `CC1=C(C(=O)c2ccccc2)C(c2cccc(O)c2)NC(=S)N1C` (stereo in doubt; form 1) are 5.25, 5.16, 5.75, 5.30 and 5.74.
For the compound `CC1=C(C(=O)c2ccc(F)c(F)c2)C(c2cccc(O)c2)NC(=S)N1C` (racemic), the ratio in assay [1] was found to be 2.5. Further, the pEC50 was 5.94 in assay [6] (k562); 6.17 in assay [2]; 5.87 in assay [7] (nci-h1299); 6.10 in assay [3]; 6.08 in [4]; 6.61 in assay [8] (hme1). Further, the results for the pEC50 in assay [9] (bxpc-3), in [10] (hct-116) and in [5] were 6.22, 6.41 and 5.68, respectively.
For `CC1=C(C(=O)c2ccccc2)C(c2cccc(O)c2)NC(=S)N1C` (stereo in doubt; form 3), the pEC50 is 5.43 in assay [6] (k562); 5.34 in assay [7] (nci-h1299); 5.93 in assay [8] (hme1); 5.44 in assay [9] (bxpc-3); 5.76 in [10] (hct-116).
